Reference: patent US20070026080A1, “Manufacturing process for tigecycline” (Wyeth, priority 2005, published 2007)

Experiment: Strength and degradation profile of tigecycline 20 mg/mL bulk solutions by reversed phase HPLC (effect of temperature, time, pH, dissolved oxygen; Runs A to O)
Type: physicochemical
Experimental: The contents of the sample vials are dissolved in diluent. The sample solution is diluted, if necessary, and chromatographed on a reversed phase column using gradient elution. Impurities are determined by comparing the impurity peak areas in the sample preparation chromatogram to the average area of tigecycline peaks in the standard preparation chromatograms obtained concomitantly.
Chromatographic Column—Length about 15 cm, inside diameter about 4.6 mm, packed with Inertsil ODS2, 5 μm size particles or equivalent.
Detector—Ultraviolet spectrophotometric detector capable of operating at 248 nm with a sensitivity of about 0.5 absorbance units full scale.
The results of additional studies to investigate the effect of processing parameters such as temperature, time, and dissolved oxygen content on the purity profile of tigecycline solutions using the following materials, methods and procedures are presented in Tables A to O.
The experiments were run in plastic glove bags under normal laboratory light conditions. Plastic glove boxes will be used to control the headspace of the beakers. The batch size was 200 mL. • 1. Prepare the glove bag with a mixture of nitrogen and air to achieve an oxygen level in the solution as per the design. • 2. Place the jacketed beaker on the magnetic stirrer. Connect it to the cooler. Set the cooler to the desired set point. • 3. Add 200 mL of SWFI in to the beaker. Allow equilibrating. Measure the temperature and oxygen content. When it reaches the desired condition, add accurately weighed API and mix until dissolved. If necessary use spatula to aid dissolution. For pH adjustments, use 4 mL of either 0.1N NaOH or 0.1N HCl and 196 mL of WFI for manufacture. • 4. After complete dissolution, Transfer about 5.5 mL of Solution in vials and stopper them. These vials will be stoppered at the appropriate headspace conditions. Place the vials in appropriate temperature conditions. • 5. Sample the vials at 1, 4, 8, 10, 12 and 24 hours. Send the samples for analysis. Freeze the 10, 12 and 24 samples at −20° C. for analysis the following day. • 6. Measure pH and record color of the solution at each time point. Results
The 1-hour samples were taken directly from the beakers. Samples for later time points were collected in stoppered vials processed in the atmosphere of the bag in order to simulate the headspace conditions then placed in water baths or refrigerator to maintain there respective temperature conditions. This was done to maintain safety in the lab. Disposable plastic glove bags require constant flow of a mixture of nitrogen and air to maintain headspace oxygen level that will result in the desired dissolved oxygen (DO) content in the sample. The pH of samples was measured at each sample points.
Strength and degradation profile was analyzed by HPLC as described above. […] Degradation was slightly higher at higher temperature condition.

[1] = Run #N, 8° C., pH 8.2, Oxygen = 0.1 mg/L, 4 Hrs
[2] = Run #N, 8° C., pH 8.2, Oxygen = 0.1 mg/L, 8 Hrs
[3] = Run #N, 8° C., pH 8.2, Oxygen = 0.1 mg/L, 12 Hrs
[4] = Run #N, 8° C., pH 8.2, Oxygen = 0.1 mg/L, 24 Hrs
[5] = Run #O, 20 mg/mL, 5° C., Oxygen = 0.1 mg/mL, hours 1,4,8,12,24 at r7-r11, time 1 h
[6] = Run #O, 20 mg/mL, 5° C., Oxygen = 0.1 mg/mL, hours 1,4,8,12,24 at r7-r11, time 4 h
[7] = Run #O, 20 mg/mL, 5° C., Oxygen = 0.1 mg/mL, hours 1,4,8,12,24 at r7-r11, time 8 h
[8] = Run #O, 20 mg/mL, 5° C., Oxygen = 0.1 mg/mL, hours 1,4,8,12,24 at r7-r11, time 12 h
[9] = Run #O, 20 mg/mL, 5° C., Oxygen = 0.1 mg/mL, hours 1,4,8,12,24 at r7-r11, time 24 h

## CN(C)c1cc(NC(=O)CNC(C)(C)C)c(O)c2c1C[C@H]1C[C@H]3[C@H](N(C)C)C(O)=C(C(N)=O)C(=O)[C@@]3(O)C(O)=C1C2=O [Tigecycline]
[1]
  RRT 0.78 MW = 557: BRL (BRL means below reporting limit (meaning less than 0.05% of tigecycline peak))
  RRT 1.12: BRL (BRL means below reporting limit (meaning less than 0.05% of tigecycline peak))
  RRT 1.45: 0.07%
  RRT 1.58: BRL (BRL means below reporting limit (meaning less than 0.05% of tigecycline peak))
  RRT 1.64 Mino: 0.10%
  RRT 1.67 MW = 556: BRL (BRL means below reporting limit (meaning less than 0.05% of tigecycline peak))
  RRT 1.85 MW = 597: 0.09%
  Strength: 19.378 mg/mL
  Total: 0.54%
[2]
  RRT 0.12 MW = 633: BRL (BRL means below reporting limit (meaning less than 0.05% of tigecycline peak))
  RRT 0.23 MW = 572: BRL (BRL means below reporting limit (meaning less than 0.05% of tigecycline peak))
  RRT 0.50 MW = 601: BRL (BRL means below reporting limit (meaning less than 0.05% of tigecycline peak))
  RRT 0.55 MW = 583: BRL (BRL means below reporting limit (meaning less than 0.05% of tigecycline peak))
  RRT 0.58: 0.07%
  RRT 0.64 9-Amino: BRL (BRL means below reporting limit (meaning less than 0.05% of tigecycline peak))
  RRT 0.74 Epimer: 0.22%
  RRT 0.76: BRL (BRL means below reporting limit (meaning less than 0.05% of tigecycline peak))
  RRT 0.78 MW = 557: BRL (BRL means below reporting limit (meaning less than 0.05% of tigecycline peak))
  RRT 1.12: BRL (BRL means below reporting limit (meaning less than 0.05% of tigecycline peak))
  RRT 1.45: 0.08%
  RRT 1.58: BRL (BRL means below reporting limit (meaning less than 0.05% of tigecycline peak))
  RRT 1.64 Mino: 0.08%
  RRT 1.67 MW = 556: BRL (BRL means below reporting limit (meaning less than 0.05% of tigecycline peak))
  RRT 1.85 MW = 597: 0.08%
  Strength: 19.275 mg/mL
  Total: 0.53%
[3]
  RRT 0.12 MW = 633: BRL (BRL means below reporting limit (meaning less than 0.05% of tigecycline peak))
  RRT 0.23 MW = 572: BRL (BRL means below reporting limit (meaning less than 0.05% of tigecycline peak))
  RRT 0.50 MW = 601: BRL (BRL means below reporting limit (meaning less than 0.05% of tigecycline peak))
  RRT 0.55 MW = 583: 0.07%
  RRT 0.58: 0.06%
  RRT 0.64 9-Amino: BRL (BRL means below reporting limit (meaning less than 0.05% of tigecycline peak))
  RRT 0.74 Epimer: 0.31%
  RRT 0.76: BRL (BRL means below reporting limit (meaning less than 0.05% of tigecycline peak))
  RRT 0.78 MW = 557: BRL (BRL means below reporting limit (meaning less than 0.05% of tigecycline peak))
  RRT 1.12: BRL (BRL means below reporting limit (meaning less than 0.05% of tigecycline peak))
  RRT 1.45: 0.08%
  RRT 1.58: 0.05%
  RRT 1.64 Mino: 0.11%
  RRT 1.67 MW = 556: 0.07%
  RRT 1.85 MW = 597: 0.08%
  Strength: 19.382 mg/mL
  Total: 0.83%
[4]
  RRT 0.12 MW = 633: BRL (BRL means below reporting limit (meaning less than 0.05% of tigecycline peak))
  RRT 0.23 MW = 572: BRL (BRL means below reporting limit (meaning less than 0.05% of tigecycline peak))
  RRT 0.50 MW = 601: BRL (BRL means below reporting limit (meaning less than 0.05% of tigecycline peak))
  RRT 0.55 MW = 583: BRL (BRL means below reporting limit (meaning less than 0.05% of tigecycline peak))
  RRT 0.58: 0.06%
  RRT 0.64 9-Amino: BRL (BRL means below reporting limit (meaning less than 0.05% of tigecycline peak))
  RRT 0.74 Epimer: 0.31%
  RRT 0.76: BRL (BRL means below reporting limit (meaning less than 0.05% of tigecycline peak))
  RRT 0.78 MW = 557: BRL (BRL means below reporting limit (meaning less than 0.05% of tigecycline peak))
  RRT 1.12: BRL (BRL means below reporting limit (meaning less than 0.05% of tigecycline peak))
  RRT 1.45: 0.10%
  RRT 1.58: 0.05%
  RRT 1.64 Mino: 0.13%
  RRT 1.67 MW = 556: 0.07%
  RRT 1.85 MW = 597: 0.11%
  Strength: 19.211 mg/mL
  Total: 0.82%
[5]
  RRT 0.74 Epimer: 0.21%
  RRT 1.85 MW = 597: 0.08%
  Strength: 18.777 mg/mL
[6]
  RRT 0.58: 0.09%
  RRT 0.74 Epimer: 0.23%
  Strength: 18.971 mg/mL
  Total: 0.53%
[7]
  RRT 1.45: 0.09%
  RRT 1.64 Mino: 0.06%
  RRT 1.85 MW = 597: 0.09%
  Strength: 19.051 mg/mL
[8]
  RRT 0.58: 0.07%
  RRT 0.74 Epimer: 0.24%
  RRT 1.45: 0.07%
  RRT 1.64 Mino: 0.08%
  RRT 1.85 MW = 597: 0.10%
  Strength: 18.722 mg/mL
  Total: 0.55%
[9]
  RRT 0.74 Epimer: 0.25%
  RRT 1.64 Mino: 0.11%
  RRT 1.85 MW = 597: 0.06%
  Strength: 19.238 mg/mL
  Total: 0.56%
Range of pH (7.7-8.2) studied
  effect of pH on the degradation of tigecycline bulk solution: did not have any significant effect
When oxygen is removed from the process and the temperature is controlled
  degradation: very little degradation is seen
